Assay results as given in patent US10351525B2, “Beta lactamase inhibitors” (Oxford University Innovation Limited, priority 2014, dated 2019).

Columns and labels:
NDM-1 = target: T1, NDM-1 (Klebsiella pneumoniae, UniProt C7C422); experiment: biochemical
T1 construct: made in house; host or cells: Escherichia coli
Experimental: Recombinant forms of NDM-1, NDM-1 M67C, VIM-1, VIM-2, SPM-1, IMP-1 and BcII MBLs were produced in Escherichia coli as described in J. Med. Chem. 56, 6945-6953 (2013) and Makena et al Chem MechCHem 8, 1923-9 (2013). Purified VIM-2 protein was dialysed into fresh crystallization buffer (50 mM HEPES pH 7.5, 150 mM NaCl and […], concentrated to 7.5 mg/mL and used for crystallographic analyses.
Kinetic and inhibition analyses and UV-VIS studies^16 against bacterial MBLs were performed as described by Van Berkel et al in J. Med. Chem. 56, 6945-6953 (2013) and Makena et al Chem MechCHem 8, 1923-9 (2013).
The experiments were performed by using a NovaStar microplate reader (using path length correction) and were performed at r.t. (24-25° C.). All enzymes and substrates were dissolved in the assay buffer: 50 mM HEPES-NaOH buffer (pH 7.2) supplemented with 1 μg/mL BSA (to minimize the denaturation of the enzyme), 1 μM ZnSO4 and 0.01% Triton 100. Screening was carried out against a panel of MBLs including NDM-1, VIM-1, VIM-2, SPM-1 (Sao Paulo MBL-1) and IMP-1 and the non-clinically relevant model MBL Bacillus cereus (BcII).
The kinetic values determined were the means from at least three independent measurements. […] The IC50 values were determined from the plot of activity (steady state rate) versus inhibitor concentration using the same software. […]

E. coli IR60 (NDM-1) = experiment: Meropenem MIC with and without inhibitor; format: cell-based, Escherichia coli
Experimental: (§1) Further studies were carried out to determine if ML302F/ML302 potentiates β-lactam antibiotic activity in clinically derived strains containing IMP-1, IMP-4, VIM-4 or NDM-1, which are the most commonly observed MBLs in clinical isolates. All strains producing MBLs were confirmed as resistant to meropenem at the Clinical and Laboratory Standards Institute (U.S.A.) defined breakpoint of 8 μg/mL for Enterobacteriace (see Table 2 below). The minimum inhibitory concentration (MIC) of meropenem against wildtype and MBL producing Escherichia coli and Klebsiella pneumoniae strains was determined with and without increasing concentrations of ML302 or ML302F. Clinical and Laboratory Standards Institute. 2012. Methods for dilution antimicrobial susceptibility tests for bacteria that grow aerobically; 9th ed. Approved standard M07-A9. CLSI, Wayne, Pa.; and Clinical and Laboratory Standards Institute. 2012. Performance standards for antimicrobial susceptibility testing; 22nd informational supplement M100-S22. CLSI, Wayne, Pa.

E. coli MG1655 (IMP-1) = experiment: Meropenem MIC with and without inhibitor; format: cell-based, Escherichia coli; settings: for Meropenem MIC in the presence of inhibitor: E. coli MG1655 (IMP-1)
Experimental: as §1

[1] = test system: K. pneumoniae A34 (VIM-4); experiment: Meropenem MIC with and without inhibitor; format: cell-based, Klebsiella pneumoniae
Experimental: as §1

[2] = test system: K. pneumoniae B19 (IMP-4); experiment: Meropenem MIC with and without inhibitor; format: cell-based, Klebsiella pneumoniae
Experimental: as §1

[3] = test system: K. pneumoniae NCTC 5055 (IMP-1); experiment: Meropenem MIC with and without inhibitor; format: cell-based, Klebsiella pneumoniae; settings: for Meropenem MIC in the presence of inhibitor: K. pneumoniae NCTC 5055 (IMP-1)
Experimental: as §1

[4] = test system: MBL producing Escherichia coli and Klebsiella pneumoniae strains; experiment: Potentiation of meropenem; format: cell-based; settings: for Inhibitor concentration that conferred meropenem sensitivity (lowest tested): IMP producers; for Synergy with meropenem: MBL producing strains
Experimental: as §1

[5] = Klebsiella pneumoniae, read-out: Meropenem MIC in the absence of inhibitor

Compound | IC50 (NDM-1) [µM] | Meropenem MIC in the presence of inhibitor (E. coli IR60 (NDM-1); inhibitor 10 mg/L) [µg/mL] | Meropenem MIC in the presence of inhibitor (E. coli IR60 (NDM-1); inhibitor 25 mg/L) [µg/mL] | Meropenem MIC in the presence of inhibitor (E. coli IR60 (NDM-1); inhibitor 50 mg/L) [µg/mL] | Meropenem MIC in the presence of inhibitor (E. coli IR60 (NDM-1); inhibitor 100 mg/L) [µg/mL] | Meropenem MIC in the presence of inhibitor (E. coli MG1655 (IMP-1); inhibitor 10 mg/L) [µg/mL] | Meropenem MIC in the presence of inhibitor (E. coli MG1655 (IMP-1); inhibitor 25 mg/L) [µg/mL] | Meropenem MIC in the presence of inhibitor (E. coli MG1655 (IMP-1); inhibitor 50 mg/L) [µg/mL] | Meropenem MIC in the presence of inhibitor (E. coli MG1655 (IMP-1); inhibitor 100 mg/L) [µg/mL] | Meropenem MIC in the presence of inhibitor ([1]; inhibitor 10 mg/L) [µg/mL] | Meropenem MIC in the presence of inhibitor ([1]; inhibitor 25 mg/L) [µg/mL] | Meropenem MIC in the presence of inhibitor ([1]; inhibitor 50 mg/L) [µg/mL] | Meropenem MIC in the presence of inhibitor ([1]; inhibitor 100 mg/L) [µg/mL] | Meropenem MIC in the presence of inhibitor ([2]; inhibitor 10 mg/L) [µg/mL] | Meropenem MIC in the presence of inhibitor ([2]; inhibitor 25 mg/L) [µg/mL] | Meropenem MIC in the presence of inhibitor ([2]; inhibitor 50 mg/L) [µg/mL] | Meropenem MIC in the presence of inhibitor ([3]; inhibitor 10 mg/L) [µg/mL] | Meropenem MIC in the presence of inhibitor ([3]; inhibitor 25 mg/L) [µg/mL] | Meropenem MIC in the presence of inhibitor ([3]; inhibitor 50 mg/L) [µg/mL] | Inhibitor concentration that conferred meropenem sensitivity (lowest tested) [4] [µg/mL] | also measured
CN1CCN(NC(=O)CN2C(=O)C(=Cc3c(Cl)ccc(Cl)c3Cl)SC2=S)CC1 (mixture of isomers) [ML302, N-(4-Methylpiperazin-1-yl)-2-(4-oxo-2-thioxo-5-(2,3,6-trichlorobenzylidene)thiazolidin-3-yl)acetamide] | 9.44 ± 1.44 | 8 | 8 | 4 | 2 | 0.5 | ≤ 0.25 | ≤ 0.25 | ≤ 0.25 | 32 | 8 | 4 | 4 | 0.5 | ≤ 0.25 | ≤ 0.25 | ≤ 0.25 | ≤ 0.25 | ≤ 0.25 | 10 | Synergy with meropenem [4]: Synergy between ML302 and meropenem was observed for all MBL producing strains; Inhibitor concentration giving meropenem sensitivity ([4]; read-out: Inhibitor concentration at which clinically relevant meropenem sensitivity (MIC<8 μg/mL) achieved): 50 µg/mL
O=C(O)C(S)=Cc1c(Cl)ccc(Cl)c1Cl (racemic) [ML302F, 2-Mercapto-3-(2,3,6-trichlorophenyl)acrylic acid] | 1.05 ± 0.3 | 16 | 16 | 8 | 8 | 4 | 4 | 2 | 0.5 | 64 | 32 | 32 | 16 | 2 | 1 | 0.5 | 4 | 0.5 | 0.5 | 10 | Meropenem MICs in the presence of ML302F relative to the same ML302 concentration, fold higher [4]: up to 8 fold; Synergy with meropenem [4]: displayed synergy with meropenem
C[C@@H](O)[C@H]1C(=O)N2C(C(=O)O)=C(S[C@@H]3CN[C@H](C(=O)N(C)C)C3)[C@H](C)[C@H]12 [Meropenem, meropenem] | – | – | – | – | – | – | – | – | – | – | – | – | – | – | – | – | – | – | – | – | MIC (E. coli IR60 (NDM-1); Escherichia coli, read-out: Meropenem MIC in the absence of inhibitor): 16 µg/mL; MIC (E. coli MG1655 (IMP-1); Escherichia coli, MG1655, read-out: Meropenem MIC in the absence of inhibitor): 32 µg/mL; MIC [1, 5]: 128 µg/mL; MIC [2, 5]: 16 µg/mL; MIC ([3]; Klebsiella pneumoniae, NCTC5055, read-out: Meropenem MIC in the absence of inhibitor): 32 µg/mL
